Experimental data published in the supplement of paper PMC11061612.

Experiments:
[1] = system: CAPAN-2 (Pancreatic Carcinoma); assay: combination Emax (second highest fraction inhibited in the dose matrix, 72 h); higher = more inhibition; extreme values may be limits of the assay
How it was run: (§1)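 After 24 hours at 37°C and 5% CO2 in 1536-well plates, cells in DMEM/F12 or RPMI plus 10% FBS received two-drug dose matrices for 72 hours. Viability came from CellTiter-Glo 2.0 luminescence and was scaled as inhibition, anchored at 0 by vehicle wells and at 1 by blank wells. Combination Emax is taken as the second-highest inhibition in the matrix, and Bliss excess as the observed combination effect less EA + EB − EA·EB, with EA and EB the single-agent effects.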

NY (Osteosarcoma) [2] = assay: as above
How it was run: as §1

[3] = system: VCaP (Prostate Carcinoma); assay: as above
How it was run: as §1

[4] = system: NCI-H1666 (Lung Adenocarcinoma); assay: as above
How it was run: as §1

IGR-37 (Melanoma) [5] = assay: as above
How it was run: as §1

[6] = system: COLO-320-HSR (Colorectal Carcinoma); assay: as above
How it was run: as §1

[7] = system: PANC-10-05 (Pancreatic Carcinoma); assay: as above
How it was run: as §1

[8] = system: NCI-H2066 (Squamous Cell Lung Carcinoma); assay: as above
How it was run: as §1

[9] = system: KARPAS-422 (B-Cell Non-Hodgkin's Lymphoma); assay: as above
How it was run: as §1

[10] = system: CCK-81 (Colorectal Carcinoma); assay: as above
How it was run: as §1

FU97 (Gastric Carcinoma) [11] = assay: as above
How it was run: as §1

[12] = system: TT (Thyroid Gland Carcinoma); assay: as above
How it was run: as §1

[13] = system: NCI-H64 (Small Cell Lung Carcinoma); assay: as above
How it was run: as §1

[14] = system: BICR22 (Oral Cavity Carcinoma); assay: as above
How it was run: as §1

[15] = system: NCI-H1581 (Non-Small Cell Lung Carcinoma); assay: as above
How it was run: as §1

[16] = system: ONS-76 (Other Solid Carcinomas); assay: as above
How it was run: as §1

U-2-OS (Osteosarcoma) [17] = assay: as above
How it was run: as §1

[18] = system: ECC10 (Gastric Carcinoma); assay: as above
How it was run: as §1

[19] = system: CAPAN-2 (Pancreatic Carcinoma); assay: Bliss excess, mean over the matrix (fraction); higher = more synergy
How it was run: as §1

NY (Osteosarcoma) [20] = assay: as above
How it was run: as §1

[21] = system: VCaP (Prostate Carcinoma); assay: as above
How it was run: as §1

[22] = system: NCI-H1666 (Lung Adenocarcinoma); assay: as above
How it was run: as §1

IGR-37 (Melanoma) [23] = assay: as above
How it was run: as §1

[24] = system: COLO-320-HSR (Colorectal Carcinoma); assay: as above
How it was run: as §1

[25] = system: PANC-10-05 (Pancreatic Carcinoma); assay: as above
How it was run: as §1

[26] = system: NCI-H2066 (Squamous Cell Lung Carcinoma); assay: as above
How it was run: as §1

[27] = system: KARPAS-422 (B-Cell Non-Hodgkin's Lymphoma); assay: as above
How it was run: as §1

[28] = system: CCK-81 (Colorectal Carcinoma); assay: as above
How it was run: as §1

FU97 (Gastric Carcinoma) [29] = assay: as above
How it was run: as §1

[30] = system: TT (Thyroid Gland Carcinoma); assay: as above
How it was run: as §1

[31] = system: NCI-H64 (Small Cell Lung Carcinoma); assay: as above
How it was run: as §1

[32] = system: BICR22 (Oral Cavity Carcinoma); assay: as above
How it was run: as §1

[33] = system: NCI-H1581 (Non-Small Cell Lung Carcinoma); assay: as above
How it was run: as §1

[34] = system: ONS-76 (Other Solid Carcinomas); assay: as above
How it was run: as §1

U-2-OS (Osteosarcoma) [35] = assay: as above
How it was run: as §1

[36] = system: ECC10 (Gastric Carcinoma); assay: as above
How it was run: as §1
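Wherever Bliss excess, mean over the matrix is given: after 72 h of two-drug dosing.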

SMILES | combination Emax [1] | combination Emax (NY (Osteosarcoma) [2]) | combination Emax [3] | combination Emax [4] | combination Emax (IGR-37 (Melanoma) [5]) | combination Emax [6] | combination Emax [7] | combination Emax [8] | combination Emax [9] | combination Emax [10] | combination Emax (FU97 (Gastric Carcinoma) [11]) | combination Emax [12] | combination Emax [13] | combination Emax [14] | combination Emax [15] | combination Emax [16] | combination Emax (U-2-OS (Osteosarcoma) [17]) | combination Emax [18] | Bliss excess [19] | Bliss excess (NY (Osteosarcoma) [20]) | Bliss excess [21] | Bliss excess [22] | Bliss excess (IGR-37 (Melanoma) [23]) | Bliss excess [24] | Bliss excess [25] | Bliss excess [26] | Bliss excess [27] | Bliss excess [28] | Bliss excess (FU97 (Gastric Carcinoma) [29]) | Bliss excess [30] | Bliss excess [31] | Bliss excess [32] | Bliss excess [33] | Bliss excess [34] | Bliss excess (U-2-OS (Osteosarcoma) [35]) | Bliss excess [36]
N#Cc1cnc(Nc2cc(NC[C@H]3CNCCO3)c(C(F)(F)F)cn2)cn1 [SRA737] + Nc1ccn([C@@H]2O[C@H](CO)[C@@H](O)C2(F)F)c(=O)n1 [Gemcitabine] (first compound max 10 µM, 7x7, partner max 0.3 µM) | 0.319 | 0.808 | 0.77 | 0.54 | 0.782 | 0.815 | 0.584 | 0.208 | 0.852 | 0.859 | 0.318 | 0.469 | 0.863 | 0.946 | 0.957 | 0.811 | 0.829 | 0.859 | 0.0141 | -0.0439 | -0.0259 | 0.0128 | -0.09 | 0.0911 | 0.0598 | -0.0332 | 0.0409 | -0.0976 | -0.0494 | -0.0551 | 0.0476 | 0.0636 | 0.176 | -0.0843 | 0.051 | 0.0624
Cc1cc2ncnn2cc1Nc1ncc2c(n1)n(C1CCOCC1)c(=O)n2C [AZD7648] + COc1cc([C@@H]2c3cc4c(cc3[C@@H](O[C@@H]3O[C@@H]5CO[C@@H](C)O[C@H]5[C@H](O)[C@H]3O)[C@H]3COC(=O)[C@H]23)OCO4)cc(OC)c1O [Etoposide] (first compound max 10 µM, 7x7, partner max 10 µM) | 0.186 | 0.654 | 0.579 | 0.401 | 0.703 | 0.606 | 0.636 | 0.332 | 0.884 | 0.565 | 0.298 | 0.431 | 0.316 | 0.856 | 0.787 | 0.748 | 0.647 | 0.913 | 0.0103 | 0.0475 | 0.0464 | 0.0131 | 0.0178 | 0.0573 | 0.0148 | -0.03 | -0.0391 | 0.093 | -0.0016 | 0.0627 | -0.0142 | 0.13 | 0.0368 | 0.0815 | 0.0528 | 0.108
O=C(c1cc(Cc2n[nH]c(=O)c3ccccc23)ccc1F)N1CCN(C(=O)C2CC2)CC1 [Olaparib] + CC1(C)CCC(CN2CCN(c3ccc(C(=O)NS(=O)(=O)c4ccc(NCC5CCOCC5)c([N+](=O)[O-])c4)c(Oc4cnc5[nH]ccc5c4)c3)CC2)=C(c2ccc(Cl)cc2)C1 [Venetoclax] (first compound max 10 µM, 7x7, partner max 1 µM) | 0.0502 | 0.188 | 0.101 | 0.104 | 0.3 | 0.176 | 0.125 | 0.136 | 0.611 | 0.148 | 0.104 | 0.208 | 0.166 | 0.0823 | 0.234 | 0.17 | 0.109 | 0.706 | -0.0398 | 0.0029 | -0.0434 | -0.0661 | 0.0143 | 0.0038 | -0.059 | -0.0521 | 0.0071 | -0.0382 | -0.0322 | -0.0158 | 0.0167 | -0.0428 | -0.0035 | -0.014 | -0.0331 | 0.0155
N#Cc1cnc(Nc2cc(NC[C@H]3CNCCO3)c(C(F)(F)F)cn2)cn1 [SRA737] + O=c1[nH]cc(F)c(=O)[nH]1 [5-Fluorouracil] (first compound max 10 µM, 7x7, partner max 20 µM) | 0.147 | 0.538 | 0.378 | 0.381 | 0.728 | 0.302 | 0.311 | 0.197 | 0.521 | 0.855 | 0.167 | 0.373 | 0.736 | 0.84 | 0.411 | 0.835 | 0.625 | 0.72 | -0.0132 | -0.0522 | -0.046 | -0.0428 | -0.057 | 0.0047 | -0.0727 | -0.0379 | -0.0095 | -0.0681 | -0.0344 | 0.0035 | -0.0104 | 0.0671 | 0.0093 | -0.0482 | -0.0167 | 0.0718
CS(=O)(=O)CCNCc1ccc(-c2ccc3ncnc(Nc4ccc(OCc5cccc(F)c5)c(Cl)c4)c3c2)o1 [Lapatinib] + Cn1cnc2c(F)c(Nc3ccc(Br)cc3Cl)c(C(=O)NOCCO)cc21 [Selumetinib] (first compound max 10 µM, 7x7, partner max 10 µM) | 0.424 | 0.329 | 0.182 | 0.839 | 0.856 | 0.264 | 0.556 | 0.338 | 0.562 | 0.944 | 0.906 | 0.305 | 0.14 | 0.924 | 0.395 | 0.748 | 0.647 | 0.951 | 0.0147 | 0.0033 | -0.0677 | 0.064 | -0.0934 | 0.0181 | 0.0247 | -0.0156 | 0.0289 | -0.0522 | -0.0116 | -0.0416 | -0.0224 | 0.128 | 0.031 | -0.0123 | -0.0563 | -0.0082
